Laboratory results published in US20250221930A1, “A COMPOSITION COMPRISING LIPID NANOPARTICLES AND AN ANTIFUNGAL POLYENE” (INSTITUT NATIONAL DE LA SANTÉ ET DE LA RECHERCHE MÉDICALE, priority 2022, published 2025).
Values after ≈ are worked out from the molar mass of the structure shown.

Tests used:
Lichtheimia ramosa = test: EUCAST MICs of AmB, ISA, AmB-loaded LNPs and AmB-ISA-loaded LNPs; type: cell-based; details: Lichtheimia ramosa; 24 h at 37° C.
Protocol: (§1) Briefly, a mass (80-120 mg) of an oil phase consisting of triglycerides (Labrafac®, or tributyrin in different mass ratios, i.e. 100% Labrafac® to 100% tributyrin) was supplemented with AmB (0,025 to 0.2 mg) and ISA (0.25 to 5 mg) and then mixed with 80 to 120 mg of PEG15HS (Solutol HS15®) and 500 to 800 μl of water to form an oil-in-water emulsion. This emulsion was then heated to 85° C., to obtain a water-in-oil emulsion, and then cooled to 40° C. Three such temperature cycles were performed and the system was then fast cooled to 4° C. The formulated nanoparticles were then characterized by size distribution and mean zeta potential measurements. Examples of formulations of LNPs loaded with AmB and AmB-ISA are detailed in Table 5:
(§2) Rhizopus arrhizus 1, Lichtheimia corymbifera and Lichtheimia ramosa strains were used. These correspond to the most frequently encountered species in human mucormycosis. These three strains were isolated from patients suffering from pulmonary mucormycosis.
(§3) MICs of AmB in solution, ISA in solution, AmB-loaded LNPs, and AmB-ISA-loaded LNPs were evaluated according to the European Committee on Antimicrobial Susceptibility Testing (EUCAST) guidelines. Briefly, MICs were determined by adding 100 μL of two-fold dilutions of AmB in solution, ISA in solution, AmB-LNPs or AmB-ISA-LNPs (0.008 to 4 mg/L) in 96-well plates. One hundred microliters of a spore suspension at a concentration of 105 spores/mL were added to the wells, and the plates were incubated for 24 h (Mucorales) or 48 h (A. fumigatus) at 37° C. […] Three experiments were performed for each strain.

Rhizopus arrhizus 1 [1] = test: as above; type: cell-based; details: Rhizopus arrhizus, 1; 24 h at 37° C.
Protocol: as §1, §2, §3

Lichtheimia corymbifera = test: as above; type: cell-based; details: Lichtheimia corymbifera; 24 h at 37° C.
Protocol: as §1, §2, §3

L. ramosa = test: Checkerboard MICs of AmB, ISA and PEG15HS in solution; type: cell-based, Lichtheimia ramosa; details: Lichtheimia ramosa, RPMI, 24 h at 37° C.
Protocol: (§4) AmB minimum inhibitory concentrations (MIC) of each strain of Mucorales was measured in RPMI in the presence of different concentrations of ISA or PEG15HS as described by the EUCAST broth microdilution antifungal susceptibility test methodology with modification for the checkerboard procedure. Checkerboards were performed by adding 100 μL of two-fold dilutions of AmB (0.008 to 4 mg/L) and ISA (0.008 to 4 mg/L) or PEG15HS (0.04 to 2752 mg/L) in 96 well plates. One hundred microliters of a spore suspension at a concentration of 105 spores/mL were added to the wells, and the plates were incubated for 24 h at 37° C. […] Three experiments were performed for each strain.
(§5) AmB MIC of each strain of Mucorales was measured in RPMI in the presence of different concentrations of ISA and a constant concentration of PEG15HS (100 times the concentration of AmB) as described by the EUCAST broth microdilution antifungal susceptibility test methodology with modification for the checkerboard procedure. Checkerboards were performed by adding 100 μL of two-fold dilutions of AmB (0.008 to 4 mg/L)+PEG15HS (0.8 to 400 mg/L) and ISA (0.008 to 4 mg/L) in 96 well plates. One hundred microliters of a spore suspension at a concentration of 105 spores/mL were added to the wells, and the plates were incubated for 24 h at 37° C. […] Three experiments were performed for each strain. […]

Aspergillus fumigatus = test: EUCAST MICs of AmB, ISA, AmB-loaded LNPs and AmB-ISA-loaded LNPs; type: cell-based; details: 48 h at 37° C.
Protocol: as §1
Two reference strains (ATCC 16424 and ATCC 204305) and a clinical azole-resistant strain (AfR2) of Aspergillus fumigatus were used.
as §3

L. corymbifera = test: Checkerboard MICs of AmB, ISA and PEG15HS in solution; type: cell-based, Lichtheimia corymbifera; details: Lichtheimia corymbifera, RPMI, 24 h at 37° C.
Protocol: as §4, §5

Rhizopus arrhizus 1 [2] = test: as above; type: cell-based; details: Rhizopus arrhizus, 1, RPMI, 24 h at 37° C.
Protocol: as §4, §5

MIC (Lichtheimia ramosa): 4 µg/mL (≈ 9.14 µM)
MIC (Rhizopus arrhizus 1 [1]): 1 µg/mL (≈ 2.29 µM)
MIC (Lichtheimia corymbifera): 4 µg/mL (≈ 9.14 µM)
MIC (L. ramosa): 4 µg/mL
MIC (Aspergillus fumigatus; ATCC16424, Aspergillus fumigatus 16 (ATCC 16424)): 0.5 µg/mL (≈ 1.14 µM)
MIC (Aspergillus fumigatus; Aspergillus fumigatus, ATCC204305, A. fumigatus 20 (ATCC 204305)): 0.5 µg/mL (≈ 1.14 µM)
MIC (Aspergillus fumigatus; Aspergillus fumigatus, A. fumigatus R2 (clinical azole-resistant strain AfR2)): > 4 µg/mL
MIC (L. corymbifera): 4 µg/mL
MIC (Rhizopus arrhizus 1 [2]): 1 µg/mL
Structure (SMILES): C[C@@H](c1nc(-c2ccc(C#N)cc2)cs1)[C@](O)(Cn1cncn1)c1cc(F)ccc1F [ISA, isavuconazole]
